Experimental data: patent publication US11643421B2, “Process for the preparation of tricyclic PI3K inhibitor compounds and methods for using the same for the treatment of cancer” (priority 2015, dated 2023)
Like-named read-outs stand apart in the source and are kept apart here.

How the values were obtained:
pAKT [1] = test: Modulation of pAkt in the brain of healthy mice; format: in vivo, Female CD-1 mice; conditions: single oral dose 25 mg/kg
Procedure: (§1) Inhibition of the PI3K pathway was assessed in the brain of healthy mice through measurement of two markers, pAkt and pS6. […] Brains and plasma were collected at 1 and 6 hours post-dose, from 3 animals at each time point. […] For PD analysis, cell extraction buffer (Invitrogen, Camarillo, Calif.) containing 10 mM Tris pH 7.4, 100 mM NaCl, 1 mM EDTA, 1 mM EGTA, 1 mM NaF, 20 mM Na4P2O7, 2 mM Na3VO4, 1% Triton X-100, 10% glycerol, 0.1% SDS, and 0.5% deoxycholate was supplemented with phosphatase, protease inhibitors (Sigma, St. Louis, Mo.) and 1 mM PMSF and added to frozen brain biopsies. Brains were homogenized with a small pestle (Konte Glass Company, Vineland, N.J.), sonicated briefly on ice, and centrifuged at 20,000 g for 20 minutes at 4° C. Protein concentration was determined using BCA protein assay (Pierce, Rockford, Ill.). Proteins were separated by electrophoresis and transferred to NuPage nitrocellulose membranes (Invitrogen, Camarillo, Calif.). Licor Odyssey Infrared detection system (Licor, Lincoln, Nebr.) was used to assess and quantify protein expression. […] The differences in marker levels between the treated and control mice were evaluated using the Student's t-test (Prism 5, GraphPad).

EphA4 = EphA4 (Homo sapiens, UniProt P54764); test: biochemical; conditions: read-out: % inhib
Frk = Frk (Homo sapiens, UniProt P42685); test: biochemical; conditions: read-out: % inhib
pS6 = test: Modulation of pS6 in the brain of healthy mice; format: in vivo, Female CD-1 mice; conditions: single oral dose 25 mg/kg
Procedure: as §1

U87 intracranial tumors = test: Efficacy in U87 intracranial model; format: in vivo, mice; conditions: 15 mg/kg PO daily for 2 weeks, micro-CT
Description: These U87 and GS2 models are PTEN-deficient, with the GS2 cell line presenting a copy number loss at the PTEN locus (Gunther H S, et al.) with no detectable PTEN protein by western blot (Carlson […], Schroeder […]., “Establishment, maintenance and in vitro and in vivo applications of primary human glioblastoma multiforme (GBM) xenograft models for translational biology studies and drug discovery”, Curr Protoc Pharmacol. 2011; Chapter 14: Unit 14 16). The identity of the two cell lines was confirmed by STR profiling (DNA Diagnostics Center) using cells within 5 passages of those utilized for in vivo studies. […] The differences between treatment groups were evaluated using Student's t test in Prism (Prism 5, GraphPad). […] Body temperature was continuously monitored using a rectal probe and was maintained at 37° C. by a heated-air flow system regulated by in-house LabVIEW controller software. […] 12-20 axial 0.5-0.8 mm-thick slices were acquired with a 20×20 mm field of view (FOV), and 128×128 matrix, zero-filled to 256×256 mages. […] Brain sample preparation, micro-CT scanning, and image analysis for ex-vivo micro-CT imaging were performed as described previously (de […], Nishimura M C, Phillips H, Carano […] micro-CT imaging of the postmortem brain”, J. Neurosci. Methods. 2008; 171 (2): 207-213).

pAKT [2] = test: PI3K pathway modulation in GS2 tumors, western blot; conditions: 15 mg/kg PO daily 4 weeks
Procedure: Each brain was dissected to separate the tumor from the healthy tissues. […] The GS2 tumors isolated from the brains were processed and the PI3K pathway markers pAkt, pS6 and p4EBP1 were measured as described previously.

[3] = In vivo pharmacokinetics IV and PO; set-up: species or system beagle dogs; conditions: Dog
Procedure: (§2) The hepatocyte stability of compound IIIat was evaluated across preclinical species. Certain in vivo pharmacokinetic parameters were also evaluated. […] Male Sprague-Dawley rats, female CD-1 mice, male cynomolgus monkeys and beagle dogs were dosed intravenously with 1 mg/kg of compound IIIat prepared in 60% PEG400/10% Ethanol. Compound IIIat was administered orally (PO) at the indicated dose in 0.5% methylcellulose with 0.2% Tween 80 (MCT).

mouse P-gp (mdr1a) = mouse P-gp (mdr1a) (Mus musculus, UniProt P21447); test: Transport assay in Mdr1a-LLC-PK1 cell monolayers; format: in vitro ADME; conditions: Mdr1a-LLC-PK, 2-hour incubation
Procedure: MDR1-MDCKI cells were licensed from the NCI (National Cancer Institute, Bethesda, Md.) and Bcrp1-MDCKII, BCRP-MDCKII and Mdr1a-LLC-PK1 cells were obtained from the Netherlands Cancer Institute (Amsterdam. The Netherlands). […] The compound was dissolved in transport buffer consisting of Hank's balanced salt solution (HBSS) with 10 mM HEPES (Invitrogen Corporation, Grand Island, N.Y.). Lucifer Yellow (Sigma-Aldrich, St. Louis, Mo.) was used as the paracellular and monolayer integrity marker. […] The efflux ratio (ER) was calculated (Papp, B-A/Papp, A-B).

ZAP-70 = ZAP-70 (Homo sapiens, UniProt P43403); test: biochemical; conditions: read-out: % inhib
NEK2 = NEK2 (Homo sapiens, UniProt P51955); test: biochemical; conditions: read-out: % inhib
MEK1 = MEK1 (Homo sapiens, UniProt Q02750); test: biochemical; conditions: read-out: % inhib
EphA2 = EphA2 (Homo sapiens, UniProt P29317); test: biochemical; conditions: read-out: % inhib
MSK2 = MSK2 (Homo sapiens, UniProt O75676); test: biochemical; conditions: read-out: % inhib
[4] = Hepatocyte stability, predicted hepatic clearance; format: in vitro ADME, cynomolgus monkeys; conditions: Cyno hepatocytes, in vitro t1/2 method
Procedure: as §2

PhK_gamma1 = PhK_gamma1 (Homo sapiens, UniProt Q16816); test: biochemical; conditions: read-out: % inhib
[5] = Plasma protein binding (PPB %); format: in vitro ADME; conditions: dog
Procedure: as §2

Flt1 = Flt1 (Homo sapiens, UniProt P17948); test: biochemical; conditions: read-out: % inhib
[6] = Plasma and brain concentrations in GS2 tumor-bearing mice; format: in vivo; conditions: mouse, 15 mg/kg PO; for concentration at 2 h: 2 h post-dose; for concentration at 8 h: 8 h post-dose
[7] = non-tumored half of the brain, read-out: Brain

Sequence of EphA2 (P29317 24-976, species assumed): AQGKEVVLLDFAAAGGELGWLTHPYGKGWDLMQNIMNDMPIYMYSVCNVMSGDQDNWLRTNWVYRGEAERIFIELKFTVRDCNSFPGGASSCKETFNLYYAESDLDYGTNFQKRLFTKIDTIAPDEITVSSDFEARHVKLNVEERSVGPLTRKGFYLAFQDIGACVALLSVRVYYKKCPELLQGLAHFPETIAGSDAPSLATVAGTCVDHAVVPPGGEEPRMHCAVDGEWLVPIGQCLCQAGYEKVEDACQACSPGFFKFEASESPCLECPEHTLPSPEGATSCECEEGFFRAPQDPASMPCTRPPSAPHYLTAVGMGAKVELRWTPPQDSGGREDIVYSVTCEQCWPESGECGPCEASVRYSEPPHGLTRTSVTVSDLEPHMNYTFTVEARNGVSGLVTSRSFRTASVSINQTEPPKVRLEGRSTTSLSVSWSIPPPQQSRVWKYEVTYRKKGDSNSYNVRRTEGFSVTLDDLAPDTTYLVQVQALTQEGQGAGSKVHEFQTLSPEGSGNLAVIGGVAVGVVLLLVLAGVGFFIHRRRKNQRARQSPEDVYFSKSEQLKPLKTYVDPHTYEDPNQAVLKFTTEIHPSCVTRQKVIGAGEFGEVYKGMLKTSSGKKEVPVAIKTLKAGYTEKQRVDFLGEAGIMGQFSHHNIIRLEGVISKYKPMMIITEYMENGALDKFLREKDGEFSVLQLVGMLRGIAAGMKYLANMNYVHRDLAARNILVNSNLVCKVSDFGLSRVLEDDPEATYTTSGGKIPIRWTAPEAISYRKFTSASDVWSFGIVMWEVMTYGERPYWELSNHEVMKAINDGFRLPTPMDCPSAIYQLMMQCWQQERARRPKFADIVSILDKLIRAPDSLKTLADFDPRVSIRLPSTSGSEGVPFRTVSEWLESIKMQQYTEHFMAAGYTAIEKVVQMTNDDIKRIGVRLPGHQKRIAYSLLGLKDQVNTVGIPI
Sequence of ZAP-70 (P43403 whole entry, species assumed): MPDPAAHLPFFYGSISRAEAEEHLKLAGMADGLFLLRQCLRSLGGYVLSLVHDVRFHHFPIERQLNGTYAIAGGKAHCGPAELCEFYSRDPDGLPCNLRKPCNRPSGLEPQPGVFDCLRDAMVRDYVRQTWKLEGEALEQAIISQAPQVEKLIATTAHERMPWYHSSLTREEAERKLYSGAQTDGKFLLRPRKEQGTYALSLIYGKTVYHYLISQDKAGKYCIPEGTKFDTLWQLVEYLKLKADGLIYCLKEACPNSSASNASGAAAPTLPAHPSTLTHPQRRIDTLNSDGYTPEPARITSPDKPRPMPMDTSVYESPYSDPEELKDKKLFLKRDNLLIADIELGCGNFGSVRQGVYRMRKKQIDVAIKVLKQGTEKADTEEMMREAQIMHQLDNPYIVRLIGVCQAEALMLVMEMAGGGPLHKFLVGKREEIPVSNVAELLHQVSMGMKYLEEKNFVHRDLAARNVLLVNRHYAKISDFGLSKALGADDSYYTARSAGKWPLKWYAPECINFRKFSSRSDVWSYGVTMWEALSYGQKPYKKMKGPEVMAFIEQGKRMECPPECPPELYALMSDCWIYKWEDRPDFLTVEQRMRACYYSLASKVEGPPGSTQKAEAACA
Sequence of MSK2 (O75676 whole entry, species assumed): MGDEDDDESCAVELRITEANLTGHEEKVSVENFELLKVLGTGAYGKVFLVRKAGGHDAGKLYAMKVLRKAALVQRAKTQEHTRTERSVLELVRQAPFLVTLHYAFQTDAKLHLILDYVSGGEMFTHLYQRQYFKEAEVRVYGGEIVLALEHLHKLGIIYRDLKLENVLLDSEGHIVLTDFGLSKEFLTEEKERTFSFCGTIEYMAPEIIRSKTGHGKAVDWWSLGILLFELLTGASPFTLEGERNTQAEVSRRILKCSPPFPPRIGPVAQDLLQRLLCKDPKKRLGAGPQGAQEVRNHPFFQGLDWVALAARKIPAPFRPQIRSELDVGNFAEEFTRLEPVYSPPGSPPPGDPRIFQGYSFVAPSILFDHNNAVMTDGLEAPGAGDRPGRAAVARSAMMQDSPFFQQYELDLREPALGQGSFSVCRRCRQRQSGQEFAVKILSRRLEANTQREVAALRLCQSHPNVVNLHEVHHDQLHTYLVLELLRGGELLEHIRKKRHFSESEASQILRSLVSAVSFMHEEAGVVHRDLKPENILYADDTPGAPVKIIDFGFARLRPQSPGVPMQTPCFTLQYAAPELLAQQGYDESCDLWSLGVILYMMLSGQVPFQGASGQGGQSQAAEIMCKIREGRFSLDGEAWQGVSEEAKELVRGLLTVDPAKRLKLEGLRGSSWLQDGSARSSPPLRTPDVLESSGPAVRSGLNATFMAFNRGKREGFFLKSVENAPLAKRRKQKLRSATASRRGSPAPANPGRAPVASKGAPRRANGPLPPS
Sequence of NEK2 (P51955 whole entry): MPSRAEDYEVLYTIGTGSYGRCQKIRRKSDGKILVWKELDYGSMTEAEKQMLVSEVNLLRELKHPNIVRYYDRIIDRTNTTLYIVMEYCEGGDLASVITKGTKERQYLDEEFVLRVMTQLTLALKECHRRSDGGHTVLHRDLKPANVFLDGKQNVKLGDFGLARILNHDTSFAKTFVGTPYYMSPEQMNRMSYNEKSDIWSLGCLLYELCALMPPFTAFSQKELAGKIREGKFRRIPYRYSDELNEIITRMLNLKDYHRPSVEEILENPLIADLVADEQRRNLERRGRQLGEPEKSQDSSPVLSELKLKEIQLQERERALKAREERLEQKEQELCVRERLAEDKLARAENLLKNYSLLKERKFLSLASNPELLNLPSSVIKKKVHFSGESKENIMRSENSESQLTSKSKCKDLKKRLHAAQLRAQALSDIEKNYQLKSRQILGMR
Sequence of PhK_gamma1 (Q16816 whole entry): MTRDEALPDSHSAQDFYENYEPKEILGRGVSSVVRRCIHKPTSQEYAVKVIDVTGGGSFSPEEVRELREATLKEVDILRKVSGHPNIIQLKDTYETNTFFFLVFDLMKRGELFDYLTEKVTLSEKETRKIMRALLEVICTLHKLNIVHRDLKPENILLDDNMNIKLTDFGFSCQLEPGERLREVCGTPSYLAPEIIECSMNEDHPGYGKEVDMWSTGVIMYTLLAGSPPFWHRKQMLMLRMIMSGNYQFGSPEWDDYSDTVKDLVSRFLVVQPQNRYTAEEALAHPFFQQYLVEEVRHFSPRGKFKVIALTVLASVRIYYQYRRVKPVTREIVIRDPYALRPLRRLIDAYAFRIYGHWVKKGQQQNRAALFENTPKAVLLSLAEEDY
Sequence of EphA4 (P54764 20-986, species assumed): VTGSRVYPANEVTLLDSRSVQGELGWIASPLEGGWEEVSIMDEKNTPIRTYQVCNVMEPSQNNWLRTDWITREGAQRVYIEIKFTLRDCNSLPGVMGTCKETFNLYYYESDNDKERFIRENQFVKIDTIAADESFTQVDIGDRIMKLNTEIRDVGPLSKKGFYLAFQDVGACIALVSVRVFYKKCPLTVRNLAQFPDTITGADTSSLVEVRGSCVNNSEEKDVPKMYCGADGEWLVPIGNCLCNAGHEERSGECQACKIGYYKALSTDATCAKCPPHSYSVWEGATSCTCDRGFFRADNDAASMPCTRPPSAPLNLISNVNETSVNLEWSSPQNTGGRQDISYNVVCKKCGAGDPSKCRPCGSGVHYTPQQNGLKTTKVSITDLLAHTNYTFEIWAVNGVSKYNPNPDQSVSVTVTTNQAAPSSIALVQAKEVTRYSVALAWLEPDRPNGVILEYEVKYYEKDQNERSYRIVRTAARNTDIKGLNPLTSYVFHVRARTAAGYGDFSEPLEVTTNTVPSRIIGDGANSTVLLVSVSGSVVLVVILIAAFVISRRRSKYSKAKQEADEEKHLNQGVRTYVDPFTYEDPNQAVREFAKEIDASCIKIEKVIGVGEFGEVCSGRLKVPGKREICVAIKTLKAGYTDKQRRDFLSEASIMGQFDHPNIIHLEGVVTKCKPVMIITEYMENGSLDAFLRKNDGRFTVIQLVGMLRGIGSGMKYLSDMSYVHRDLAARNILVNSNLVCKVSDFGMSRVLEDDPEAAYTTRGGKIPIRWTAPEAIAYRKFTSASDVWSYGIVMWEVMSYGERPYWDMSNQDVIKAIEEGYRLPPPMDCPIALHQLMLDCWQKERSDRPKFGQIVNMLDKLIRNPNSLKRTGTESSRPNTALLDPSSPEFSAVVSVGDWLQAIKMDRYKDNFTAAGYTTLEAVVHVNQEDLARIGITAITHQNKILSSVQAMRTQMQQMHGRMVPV
Sequence of MEK1 (Q02750 whole entry): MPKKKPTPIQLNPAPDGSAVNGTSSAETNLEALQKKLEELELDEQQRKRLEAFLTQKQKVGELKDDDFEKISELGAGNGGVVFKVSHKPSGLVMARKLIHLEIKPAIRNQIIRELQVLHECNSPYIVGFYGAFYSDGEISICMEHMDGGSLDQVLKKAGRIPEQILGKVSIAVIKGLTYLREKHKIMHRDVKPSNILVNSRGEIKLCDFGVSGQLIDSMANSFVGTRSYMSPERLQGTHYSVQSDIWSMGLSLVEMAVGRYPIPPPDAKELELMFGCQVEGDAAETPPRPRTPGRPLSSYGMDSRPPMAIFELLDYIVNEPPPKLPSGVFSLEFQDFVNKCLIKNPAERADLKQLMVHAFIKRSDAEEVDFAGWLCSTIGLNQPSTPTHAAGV
Sequence of Frk (P42685 whole entry): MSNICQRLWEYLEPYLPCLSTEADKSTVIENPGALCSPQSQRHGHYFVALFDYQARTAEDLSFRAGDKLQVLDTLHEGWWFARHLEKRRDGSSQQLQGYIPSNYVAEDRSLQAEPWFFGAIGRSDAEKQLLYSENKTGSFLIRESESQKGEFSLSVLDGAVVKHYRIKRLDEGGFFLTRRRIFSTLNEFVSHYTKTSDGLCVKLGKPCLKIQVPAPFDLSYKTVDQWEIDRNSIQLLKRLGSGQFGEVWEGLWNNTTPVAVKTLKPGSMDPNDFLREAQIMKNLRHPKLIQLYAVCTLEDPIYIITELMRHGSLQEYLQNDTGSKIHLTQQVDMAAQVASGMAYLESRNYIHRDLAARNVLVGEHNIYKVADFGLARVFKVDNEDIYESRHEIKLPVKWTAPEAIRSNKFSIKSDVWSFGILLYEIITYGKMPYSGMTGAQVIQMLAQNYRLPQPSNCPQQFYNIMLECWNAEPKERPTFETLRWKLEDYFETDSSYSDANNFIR

SMILES: CC1(C)OCCn2c1nc1c(N3CCOCC3)nc(-c3cnc(N)nc3)nc12 [GDC-0084, 5-(6,6-dimethyl-4-morpholino-8,9-dihydro-6H-[1,4]oxazino[3,4-e]purin-2-yl)pyrimidin-2-amine]
- Suppression of pAkt in brain (pAKT [1]; 1 hour post dose): 90%
- Suppression of pAkt in brain (pAKT [1]; 6 hours after dosing): greater than 70%
- inhibition at 1 µM (EphA4): 3%
- inhibition at 1 µM (Frk): 8%
- Suppression of pS6 in brain (pS6; 1 hour post dose): 90%
- Suppression of pS6 in brain (pS6; 6 hours after dosing): greater than 70%
- U87 tumor volume reduction versus vehicle control (U87 intracranial tumors): approximately 70%
- reduction of pAkt levels in GS2 tumors (pAKT [2]; 2 hours after final administration): 90%
- reduction of pAkt levels in GS2 tumors (pAKT [2]; 8 hours after final administration): 70%
- AUC ([3]; PO 2 mg/kg in MCT): 1.6 μm·h
- Cmax ([3]; PO 2 mg/kg in MCT): 0.2 μm
- clearance ([3]; beagle, plasma, IV 1 mg/kg, read-out: In vivo Cl): 26 mL/min/kg
- Vd ([3]; beagle, plasma, IV 1 mg/kg, read-out: Vss): 3 L/kg
- bioavailability ([3]; beagle, plasma, PO 2 mg/kg in MCT): 40%
- Papp B→A at 2 h, 5 μM (mouse P-gp (mdr1a)): 19.4 ± 1.3 ×10⁻⁶ cm/s
- inhibition at 1 µM (ZAP-70): -0.9%
- inhibition at 1 µM (NEK2): 20%
- inhibition at 1 µM (MEK1): -0.1%
- inhibition at 1 µM (EphA2): -0.7%
- inhibition at 1 µM (MSK2): 0.6%
- Clhep [4]: 26 mL/min/kg
- inhibition at 1 µM (PhK_gamma1): 2%
- fraction unbound [5]: 0.34
- inhibition at 1 µM (Flt1): 0.6%
- concentration at 2 h ([6]; plasma, read-out: Plasma): 3.64 ± 2.05 µM
- concentration at 8 h ([6]; plasma, read-out: Plasma): 2.01 ± 1.19 µM
- concentration at 2 h [6, 7]: 5.51 ± 1.58 µM
- concentration at 8 h [6, 7]: 2.48 ± 1.25 µM
